Test results reported in PMC5218480 (PLoS ONE, 2017).

Tested on: MV-4-11 cells
Test: Gene expression microarray analysis (Affymetrix PrimeView) and GSEA
Assay type: cell-based, human
Parameters: RFU PODN (11730768_x_at) / Fold change /veh PODN (11730768_x_at) / RFU LINC00158 (11744669_a_at) / Fold change /veh LINC00158 (11744669_a_at) / RFU DUSP10 (11751237_a_at) / Fold change /veh DUSP10 (11751237_a_at) / RFU ID3 (11757404_x_at) / Fold change /veh ID3 (11757404_x_at) / RFU PLEKHG5 (11737974_s_at) / Fold change /veh PLEKHG5 (11737974_s_at) / RFU LRRC4B (11730491_at) / Fold change /veh LRRC4B (11730491_at) / RFU GIMAP4 (11747438_a_at) / Fold change /veh GIMAP4 (11747438_a_at) / RFU KRT8 (11758183_x_at) / Fold change /veh KRT8 (11758183_x_at) / RFU CNN1 (11734310_a_at) / Fold change /veh CNN1 (11734310_a_at) / RFU VPS37D (11726825_at) / Fold change /veh VPS37D (11726825_at) / RFU C10orf10 (11716522_x_at) / Fold change /veh C10orf10 (11716522_x_at) / RFU KIR2DL2 /// KIR2DL4 /// KIR2DL5A /// KIR2DL5B /// KIR2DS1 /// KIR2DS2 /// KIR2DS3 /// KIR2DS4 /// KIR3DL3 /// KIR3DL3 /// KIR3DS1 (11738374_at) / Fold change /veh KIR2DL2 /// KIR2DL4 /// KIR2DL5A /// KIR2DL5B /// KIR2DS1 /// KIR2DS2 /// KIR2DS3 /// KIR2DS4 /// KIR3DL3 /// KIR3DL3 /// KIR3DS1 (11738374_at) / RFU C1QL1 (11718748_at) / Fold change /veh C1QL1 (11718748_at) / RFU TMPRSS4 (11747572_a_at) / Fold change /veh TMPRSS4 (11747572_a_at) / RFU HAMP (11756126_x_at) / Fold change /veh HAMP (11756126_x_at) / RFU RNFT2 (11725882_a_at) / Fold change /veh RNFT2 (11725882_a_at) / RFU NR4A2 (11747474_a_at) / Fold change /veh NR4A2 (11747474_a_at) / RFU ABCC12 (11746883_a_at) / Fold change /veh ABCC12 (11746883_a_at) / RFU TMEM136 (11760407_x_at) / Fold change /veh TMEM136 (11760407_x_at) / RFU CLDN22 /// WWC2 (11732394_at) / Fold change /veh CLDN22 /// WWC2 (11732394_at) / RFU HLA-DPB1 (11760878_x_at) / Fold change /veh HLA-DPB1 (11760878_x_at) / RFU SPINT1 (11716480_a_at) / Fold change /veh SPINT1 (11716480_a_at) / RFU GAP43 (11754022_s_at) / Fold change /veh GAP43 (11754022_s_at) / RFU A4GNT (11735810_at) / Fold change /veh A4GNT (11735810_at) / RFU PRB3 (11715151_x_at) / Fold change /veh PRB3 (11715151_x_at) / RFU TUBB4B (11761932_at) / Fold change /veh TUBB4B (11761932_at) / RFU CAPN14 (11732068_a_at) / Fold change /veh CAPN14 (11732068_a_at) / RFU TMCC2 (11721928_a_at) / Fold change /veh TMCC2 (11721928_a_at) / RFU IRGQ (11745062_a_at) / Fold change /veh IRGQ (11745062_a_at) / RFU FAM174B (11720279_a_at) / Fold change /veh FAM174B (11720279_a_at) / RFU TMPRSS4 (11748680_a_at) / Fold change /veh TMPRSS4 (11748680_a_at) / RFU FAM212B (11763350_a_at) / Fold change /veh FAM212B (11763350_a_at) / RFU PLEKHG5 (11743358_a_at) / Fold change /veh PLEKHG5 (11743358_a_at) / RFU ZSCAN30 (11745921_a_at) / Fold change /veh ZSCAN30 (11745921_a_at) / RFU CMKLR1 (11741424_a_at) / Fold change /veh CMKLR1 (11741424_a_at) / RFU LOC101060620 /// MAPK8IP1 (11723275_at) / Fold change /veh LOC101060620 /// MAPK8IP1 (11723275_at) / RFU SPTSSB (11747773_x_at) / Fold change /veh SPTSSB (11747773_x_at) / RFU PRSS12 (11739890_at) / Fold change /veh PRSS12 (11739890_at) / RFU BIN1 (11741810_x_at) / Fold change /veh BIN1 (11741810_x_at) / RFU WNT11 (11732464_a_at) / Fold change /veh WNT11 (11732464_a_at) / RFU C10orf10 (11716521_a_at) / Fold change /veh C10orf10 (11716521_a_at) / RFU C5orf56 (11738089_at) / Fold change /veh C5orf56 (11738089_at) / RFU CYB561 (11721691_x_at) / Fold change /veh CYB561 (11721691_x_at) / RFU ANKRD19P (11752326_a_at) / Fold change /veh ANKRD19P (11752326_a_at) / RFU OR2T12 /// OR2T33 /// OR2T8 (11738714_s_at) / Fold change /veh OR2T12 /// OR2T33 /// OR2T8 (11738714_s_at) / RFU VCAN (11748164_a_at) / Fold change /veh VCAN (11748164_a_at) / RFU JSRP1 (11732532_at) / Fold change /veh JSRP1 (11732532_at) / RFU KRTAP10-11 (11738290_x_at) / Fold change /veh KRTAP10-11 (11738290_x_at) / RFU MYO3A (11730013_a_at) / Fold change /veh MYO3A (11730013_a_at) / RFU EBF3 (11725865_a_at) / Fold change /veh EBF3 (11725865_a_at) / RFU CAMK2N1 (11719241_x_at) / Fold change /veh CAMK2N1 (11719241_x_at) / RFU C5orf56 (11738088_a_at) / Fold change /veh C5orf56 (11738088_a_at) / RFU OLFML3 (11715873_a_at) / Fold change /veh OLFML3 (11715873_a_at) / RFU LOC100653217 /// NTM (11731650_a_at) / Fold change /veh LOC100653217 /// NTM (11731650_a_at) / RFU MAPK11 (11762145_a_at) / Fold change /veh MAPK11 (11762145_a_at) / RFU FIZ1 (11724087_x_at) / Fold change /veh FIZ1 (11724087_x_at) / RFU OASL (11726364_x_at) / Fold change /veh OASL (11726364_x_at) / RFU SOX15 (11748057_x_at) / Fold change /veh SOX15 (11748057_x_at) / RFU CD79A (11719716_a_at) / Fold change /veh CD79A (11719716_a_at) / RFU HIST1H1D (11736915_at) / Fold change /veh HIST1H1D (11736915_at) / RFU CASKIN2 (11723855_a_at) / Fold change /veh CASKIN2 (11723855_a_at) / RFU LOC730098 (11760151_x_at) / Fold change /veh LOC730098 (11760151_x_at) / RFU OR4N2 (11742367_at) / Fold change /veh OR4N2 (11742367_at) / RFU PRRT2 (11749266_a_at) / Fold change /veh PRRT2 (11749266_a_at) / RFU SNX32 (11753110_a_at) / Fold change /veh SNX32 (11753110_a_at) / RFU CDHR5 (11726645_a_at) / Fold change /veh CDHR5 (11726645_a_at) / RFU RCAN1 (11760418_a_at) / Fold change /veh RCAN1 (11760418_a_at) / RFU FAM167A (11723789_a_at) / Fold change /veh FAM167A (11723789_a_at) / RFU FAM26E (11764081_at) / Fold change /veh FAM26E (11764081_at) / RFU ISYNA1 (11749810_s_at) / Fold change /veh ISYNA1 (11749810_s_at) / RFU ACY1 (11761880_at) / Fold change /veh ACY1 (11761880_at) / RFU 11764098_at / Fold change /veh 11764098_at / RFU SAMD14 (11745864_x_at) / Fold change /veh SAMD14 (11745864_x_at) / RFU NPB (11741838_a_at) / Fold change /veh NPB (11741838_a_at) / RFU TMPRSS6 (11731388_a_at) / Fold change /veh TMPRSS6 (11731388_a_at) / RFU KRTAP10-2 (11738614_at) / Fold change /veh KRTAP10-2 (11738614_at) / RFU ARHGAP8 /// PRR5-ARHGAP8 (11727945_x_at) / Fold change /veh ARHGAP8 /// PRR5-ARHGAP8 (11727945_x_at) / RFU KRTAP5-7 /// NADSYN1 (11734609_at) / Fold change /veh KRTAP5-7 /// NADSYN1 (11734609_at) / RFU RASL12 (11751679_a_at) / Fold change /veh RASL12 (11751679_a_at) / RFU CDKN2B (11736163_a_at) / Fold change /veh CDKN2B (11736163_a_at) / RFU PRF1 (11729649_at) / Fold change /veh PRF1 (11729649_at) / RFU, ZNF638 /// ZNF638-IT1 / Fold change vs veh, ZNF638 /// ZNF638-IT1 / RFU, PANK3 / Fold change vs veh, PANK3 / RFU, SH3YL1 / Fold change vs veh, SH3YL1 / RFU, ZEB2 / Fold change vs veh, ZEB2 / RFU, NRIP1 / Fold change vs veh, NRIP1 / RFU, PTTG1IP / Fold change vs veh, PTTG1IP / RFU, CAPN2 / Fold change vs veh, CAPN2 / RFU, MED14 / Fold change vs veh, MED14 / RFU, SNORA58 / Fold change vs veh, SNORA58 / RFU, C1orf63 / Fold change vs veh, C1orf63 / RFU, LRRFIP1 / Fold change vs veh, LRRFIP1 / RFU, NDUFAF7 / Fold change vs veh, NDUFAF7 / RFU, SLC12A2 / Fold change vs veh, SLC12A2 / RFU, IBTK / Fold change vs veh, IBTK / RFU, ESF1 / Fold change vs veh, ESF1 / Fold change vs veh, TMEM50B / RFU, TAOK1 / Fold change vs veh, TAOK1 / RFU, ACBD3 / Fold change vs veh, ACBD3 / RFU, TMA16 / Fold change vs veh, TMA16 / RFU, RWDD3 / Fold change vs veh, RWDD3 / RFU, BCAT1 / Fold change vs veh, BCAT1 / RFU, EDEM3 / Fold change vs veh, EDEM3 / RFU, TMEM33 / Fold change vs veh, TMEM33 / RFU, WDR75 / Fold change vs veh, WDR75 / RFU, AHCTF1 / Fold change vs veh, AHCTF1 / RFU, TFRC / Fold change vs veh, TFRC / RFU, ZDHHC17 / Fold change vs veh, ZDHHC17 / RFU, NOM1 / Fold change vs veh, NOM1 / RFU, ARL8B / Fold change vs veh, ARL8B / RFU, ZBTB11 / Fold change vs veh, ZBTB11 / RFU, TAMM41 / Fold change vs veh, TAMM41 / RFU, KIAA1704 /// LOC100996395 / Fold change vs veh, KIAA1704 /// LOC100996395 / RFU, ING1 / Fold change vs veh, ING1 / RFU, TRMT61B / Fold change vs veh, TRMT61B / RFU, FUBP3 / Fold change vs veh, FUBP3 / RFU, TP53 / Fold change vs veh, TP53 / RFU, TNKS2 / Fold change vs veh, TNKS2 / RFU, ZFP14 / Fold change vs veh, ZFP14 / RFU, ACTR2 / Fold change vs veh, ACTR2 / RFU, PPP3R1 / Fold change vs veh, PPP3R1 / RFU, PIK3R1 / Fold change vs veh, PIK3R1 / RFU, HNRNPA1 / Fold change vs veh, HNRNPA1 / RFU, RNF170 / Fold change vs veh, RNF170 / RFU, ZNF28 / Fold change vs veh, ZNF28 / RFU, RNGTT / Fold change vs veh, RNGTT / RFU, OGT / Fold change vs veh, OGT / RFU, BRD1 / Fold change vs veh, BRD1 / RFU, MARS / Fold change vs veh, MARS / RFU, ZNF655 / Fold change vs veh, ZNF655 / RFU, FAHD1 / Fold change vs veh, FAHD1 / RFU, BDP1 / Fold change vs veh, BDP1 / RFU, LRRCC1 / Fold change vs veh, LRRCC1 / RFU, ARID1A / Fold change vs veh, ARID1A / RFU, ZNF146 / Fold change vs veh, ZNF146 / RFU, ZNF330 / Fold change vs veh, ZNF330 / RFU, GPN3 / Fold change vs veh, GPN3 / RFU, C9orf123 / Fold change vs veh, C9orf123 / RFU, N4BP2L2 / Fold change vs veh, N4BP2L2 / RFU, ARFIP1 / Fold change vs veh, ARFIP1 / RFU, FAM179B / Fold change vs veh, FAM179B / RFU, BCL10 / Fold change vs veh, BCL10 / RFU, UHRF1BP1L / Fold change vs veh, UHRF1BP1L / RFU, BET1 / Fold change vs veh, BET1 / RFU, CNOT2 / Fold change vs veh, CNOT2 / RFU, ZNF268 / Fold change vs veh, ZNF268 / Fold change vs veh, ZNF507 / RFU, DGCR2 / Fold change vs veh, DGCR2 / RFU, WDSUB1 / Fold change vs veh, WDSUB1 / Fold change vs veh, HSP90B1 /// MIR3652 / RFU, ADSS / Fold change vs veh, ADSS / RFU, GK / Fold change vs veh, GK / RFU, ZNF148 / Fold change vs veh, ZNF148 / RFU, TAF9 / Fold change vs veh, TAF9 / RFU, SLC1A5 / Fold change vs veh, SLC1A5 / RFU, SLMO2 / Fold change vs veh, SLMO2 / RFU, ABCC4 / Fold change vs veh, ABCC4 / RFU, LOC101060439 /// RAP1B / Fold change vs veh, LOC101060439 /// RAP1B / RFU, RFX7 / Fold change vs veh, RFX7 / RFU, GTPBP10 / Fold change vs veh, GTPBP10 / RFU, CNEP1R1 / Fold change vs veh, CNEP1R1 / RFU, BIVM-ERCC5 /// ERCC5 / Fold change vs veh, BIVM-ERCC5 /// ERCC5 / RFU, ILF3 / Fold change vs veh, ILF3 / RFU 11762660_at / Fold change /veh 11762660_at / RFU VCAN (11757783_s_at) / Fold change /veh VCAN (11757783_s_at) / RFU DDX43 (11728927_at) / Fold change /veh DDX43 (11728927_at) / RFU KRT8 (11758188_x_at) / Fold change /veh KRT8 (11758188_x_at) / RFU NKD1 (11759106_at) / Fold change /veh NKD1 (11759106_at) / RFU SRD5A1 (11742802_a_at) / Fold change /veh SRD5A1 (11742802_a_at) / RFU TPSAB1 /// TPSB2 (11721975_s_at) / Fold change /veh TPSAB1 /// TPSB2 (11721975_s_at) / RFU GSTM3 (11746129_a_at) / Fold change /veh GSTM3 (11746129_a_at) / RFU IL23R (11737362_x_at) / Fold change /veh IL23R (11737362_x_at) / RFU TMEM51 (11727254_a_at) / Fold change /veh TMEM51 (11727254_a_at) / RFU PIWIL2 (11732686_x_at) / Fold change /veh PIWIL2 (11732686_x_at) / RFU ORM1 (11744905_x_at) / Fold change /veh ORM1 (11744905_x_at) / RFU CCDC152 (11743942_at) / Fold change /veh CCDC152 (11743942_at) / RFU ECM1 (11717891_a_at) / Fold change /veh ECM1 (11717891_a_at) / RFU IL23R (11748794_a_at) / Fold change /veh IL23R (11748794_a_at) / RFU TNFAIP8L3 (11732012_x_at) / Fold change /veh TNFAIP8L3 (11732012_x_at) / RFU MBOAT4 (11741988_at) / Fold change /veh MBOAT4 (11741988_at) / RFU 11764193_at / Fold change /veh 11764193_at / RFU TMEM53 (11763286_at) / Fold change /veh TMEM53 (11763286_at) / RFU MAGEB2 (11727129_at) / Fold change /veh MAGEB2 (11727129_at) / RFU TMEM200A (11744735_a_at) / Fold change /veh TMEM200A (11744735_a_at) / RFU CCDC152 (11751479_a_at) / Fold change /veh CCDC152 (11751479_a_at) / RFU FAM211A (11726209_a_at) / Fold change /veh FAM211A (11726209_a_at) / RFU RGS16 (11746705_a_at) / Fold change /veh RGS16 (11746705_a_at) / RFU VCAN (11755009_s_at) / Fold change /veh VCAN (11755009_s_at) / RFU RHOB (11743442_s_at) / Fold change /veh RHOB (11743442_s_at) / RFU RGS16 (11720943_a_at) / Fold change /veh RGS16 (11720943_a_at) / RFU RGS16 (11720944_at) / Fold change /veh RGS16 (11720944_at) / RFU, VPS4B / Fold change vs veh, VPS4B / RFU, CREB1 / Fold change vs veh, CREB1 / RFU, DNAJC13 / Fold change vs veh, DNAJC13 / RFU, GNAQ / Fold change vs veh, GNAQ / RFU, CDK5R1 / Fold change vs veh, CDK5R1 / RFU, ZRANB3 / Fold change vs veh, ZRANB3 / RFU, CUL4A / Fold change vs veh, CUL4A / RFU, CCNY / Fold change vs veh, CCNY / RFU, UFL1 / Fold change vs veh, UFL1 / RFU, COG3 / Fold change vs veh, COG3 / RFU, DIAPH2 / Fold change vs veh, DIAPH2 / RFU, SKA2 / Fold change vs veh, SKA2 / RFU, AFF3 / Fold change vs veh, AFF3 / RFU, LMF1 / Fold change vs veh, LMF1 / RFU, IPO11 / Fold change vs veh, IPO11 / RFU, DFFB / Fold change vs veh, DFFB / RFU, FOXP1 / Fold change vs veh, FOXP1 / RFU, CARD8 / Fold change vs veh, CARD8 / RFU, STRN3 / Fold change vs veh, STRN3 / RFU, ADK / Fold change vs veh, ADK / RFU, RASSF2 / Fold change vs veh, RASSF2 / RFU, WIPF1 / Fold change vs veh, WIPF1 / RFU, LARP1B / Fold change vs veh, LARP1B / RFU, RASA1 / Fold change vs veh, RASA1 / RFU, RB1 / Fold change vs veh, RB1 / RFU, PPFIA1 / Fold change vs veh, PPFIA1 / RFU, MAT2A / Fold change vs veh, MAT2A / RFU, CCT5 / Fold change vs veh, CCT5 / RFU, WDR92 / Fold change vs veh, WDR92 / RFU, CUX1 / Fold change vs veh, CUX1 / RFU, TTC7A / Fold change vs veh, TTC7A / RFU, TMEM135 / Fold change vs veh, TMEM135 / RFU, DEPTOR / Fold change vs veh, DEPTOR / RFU, CPM / Fold change vs veh, CPM / RFU, DNAJB6 / Fold change vs veh, DNAJB6 / RFU, CACNA2D3 / Fold change vs veh, CACNA2D3 / RFU, DTX4 / Fold change vs veh, DTX4 / RFU, TFCP2 / Fold change vs veh, TFCP2 / RFU, GMCL1 /// GMCL1P1 / Fold change vs veh, GMCL1 /// GMCL1P1 / RFU, AEBP2 / Fold change vs veh, AEBP2 / RFU, SNHG1 /// SNORD22 /// SNORD25 /// SNORD26 /// SNORD27 /// SNORD28 /// SNORD29 /// SNORD31 / Fold change vs veh, SNHG1 /// SNORD22 /// SNORD25 /// SNORD26 /// SNORD27 /// SNORD28 /// SNORD29 /// SNORD31 / Fold change (Aza/veh), C12orf56 (ProbeSet 11735607_a_at) / Fold change (ACY-1035/veh), C12orf56 (ProbeSet 11735607_a_at) / Fold change (Aza/veh), FGFR1OP (ProbeSet 11751329_s_at) / Fold change (ACY-1035/veh), FGFR1OP (ProbeSet 11751329_s_at) / Fold change (Aza/veh), VPS36 (ProbeSet 11739960_a_at) / Fold change (ACY-1035/veh), VPS36 (ProbeSet 11739960_a_at) / RFU SYPL1 (11715823_x_at) / Fold change /veh SYPL1 (11715823_x_at) / RFU IGFBP7 (11715501_s_at) / Fold change /veh IGFBP7 (11715501_s_at) / RFU REEP3 (11722064_at) / Fold change /veh REEP3 (11722064_at) / RFU IGLL1 (11728026_x_at) / Fold change /veh IGLL1 (11728026_x_at): dose or concentration left out as unconfirmed
Conditions: MV-4-11 cells, 48 hours

## Nc1ncn([C@@H]2O[C@H](CO)[C@@H](O)[C@H]2O)c(=O)n1 [azacitidine]
  RFU TMEM200A (11744735_a_at): 6.62 RFU
